The numbers were not newly measured in article PMC3473115 (Accounts of chemical research, 2012), which cites them from elsewhere.

This data set has as its system HIV-1 gp41. Particulars: read-out: CCF IC50; cell-cell fusion assay.

H2N-Trp-[Trp]-Leu-OH [compound 5]: the IC50 (usually the concentration needed to halve the response being measured) is 5 µM.
